Test results: PMC4277828 (BMC Pharmacology & Toxicology, 2014)
Where “and” joins values, the source holds several entries; their conditions need not be identical. Equal entries are not always repeated. Entries after “also recorded” stand apart in the source; their conditions may differ. Where two headings read alike, the source gives them in different places. Marks after values point to notes of the source that are not given here.

Experiments:
[1] = design: method as in PMID 15844071; details: cited from earlier work
clinical = details: human, plasma, oral, 300 mg
[2] = Tolerability and safety of rifabutin and LPV/r: clinical and laboratory adverse events (DAIDS grading)
[3] = Steady-state plasma pharmacokinetics of rifabutin and 25-O-desacetylrifabutin with and without LPV/r-based ART (three-period crossover, LC/MS/MS, non-compartmental analysis); details: for AUC(0-t): human, plasma, oral, median (interquartile range), n = 14
[4] = in vivo, 300 mg
[5] = human, in vivo
[6] = Steady-state plasma pharmacokinetics of lopinavir given with two rifabutin doses (LCMS/MS, non-compartmental analysis); details: for AUC(0-t): human, plasma, oral, Median (Interquartile range), 14 patients
[7] = RBT dose at time of AE 150 mg daily (with LPV/r ART), listed as RBT
[8] = RBT dose at time of AE 150 mg tiw (with LPV/r ART), listed as RBT
[9] = sixteen patients, all rifabutin doses

Compound: CO[C@H]1/C=C/O[C@@]2(C)Oc3c(C)c(O)c4c(c3C2=O)C2=NC3(CCN(CC(C)C)CC3)NC2=C(NC(=O)/C(C)=C\C=C\[C@H](C)[C@H](O)[C@@H](C)[C@@H](O)[C@@H](C)[C@H](OC(C)=O)[C@@H]1C)C4=O [Rifabutin, rifabutin]
- Patients who relapsed or failed therapy that developed ARR ([1]; TB-HIV co-infected patients with AUC0–24 < 4.5 μg.h/mL): 83%
- Patients who relapsed or failed therapy that developed ARR ([1]; TB-HIV co-infected patients with AUC above the threshold of 4.5 μg.h/mL): 33%
- Cmax (clinical): 292 ng/mL
- AE (grade 3 laboratory adverse event, individual subject) [2, 7]: Neutropenia; also recorded: AST increased; also recorded: Amylase increased
- Days on RBT at grade 3 laboratory AE (individual subject) [2, 7]: 53 days and 77 days and 106 days and 113 days and 57 days
- AE (grade 3 laboratory adverse event, individual subject) [2, 8]: AST increased; also recorded: Amylase increased; also recorded: Neutropenia
- Days on RBT at grade 3 laboratory AE (individual subject) [2, 8]: 96 days and 119 days and 112 days
- AE (grade 3 laboratory adverse event, individual subject) ([2]; RBT dose at time of AE 300 mg daily): Neutropenia
- Days on RBT at grade 3 laboratory AE (individual subject) ([2]; RBT dose at time of AE 300 mg daily, listed as RBT): 29 days and 27 days and 28 days
- Grade 4 laboratory toxicities / events ([2]; all doses, sixteen patients): no grade 4 laboratory toxicities
- Tolerability ([2]; all doses, sixteen patients): well tolerated
- Grade 4 laboratory toxicities / events ([2]; all doses, sixteen patients, listed as rifabutin): no grade 4 laboratory events
- Association between plasma concentration and adverse events such as neutropenia or elevated transaminases ([2]; human, in vivo): unable to show a significant association
- Uveitis ([2]; patient taking rifabutin 300 mg daily, after 1 month of rifabutin, prior to / coinciding with start of ART): One case of uveitis (grade 4); also recorded: Grade 2 uveitis occurred in one patient
- Serious adverse events ([2]; sixteen patients): two serious adverse events (bacterial meningitis and pyelonephritis), both considered unrelated to rifabutin
- Grade 3 elevations in transaminases and amylase, number [2, 9]: 2
- Grade 3 neutropenia, number of occasions [2, 9]: 7 occasions
- Grade 3 neutropenia, number of patients [2, 9]: 4 patients and 5 patients
- GMR (90% CI) of Cmin24h ([3]; RBT 150 mg daily (with LPV/r ART) with RBT 300 mg daily): 2.7 (2.2 – 3.2)
- GMR (90% CI) of Cmin24h ([3]; RBT 150 mg tiw (with LPV/r ART) with RBT 300 mg daily): 1.2 (1.0 – 1.4)
- GMR (90% CI) of Cmin24h ([3]; RBT 150 mg tiw with RBT 150 mg daily (both with LPV/r ART)): 0.5 (0.4 – 0.5)
- Increase in AUC0–24 ([3]; daily dose of 150 mg compared to the three times a week dose, both with LPV/r): more than two fold increase
- AUC(0-t) ([3]; 150 mg, AUC0–24, Rifabutin 150 mg daily plus LPV/r, steady state): 4770 ng·h/mL
- AUC(0-t) ([3]; 150 mg, AUC0–24, Rifabutin 150 mg tiw plus LPV/r, steady state): 2310 ng·h/mL
- AUC(0-t) ([3]; 150 mg, AUC0–48, Rifabutin 150 mg daily plus LPV/r, calculated by 2X AUC0–24): 9530 ng·h/mL
- AUC(0-t) ([3]; 300 mg, AUC0–24, Rifabutin 300 mg daily without LPV/r, steady state): 3050 ng·h/mL
- AUC(0-t) ([3]; 300 mg, AUC0–48, Rifabutin 300 mg daily without LPV/r, calculated by 2X AUC0–24): 6110 ng·h/mL
- Patients with AUC0–24 values >4.5 μg.h/mL ([3]; rifabutin 150 mg daily with LPV/r): 71%
- Patients with AUC0–24 values >4.5 μg.h/mL ([3]; rifabutin tiw dosing with LPV/r): 14%
- Patients with AUC0-24 < 4.5 μg.h/mL ([3]; tiw rifabutin arm (150 mg tiw with LPV/r)): 86%

Compound: 25-O-desacetylrifabutin [d-RBT]
- AUC0–48 [4]: 546.6 (471.4-688.2)^* ng.h/mL
- Association between plasma concentration and adverse events such as neutropenia or elevated transaminases [5]: unable to show a significant association

Compound: Cc1cccc(C)c1OCC(=O)N[C@@H](Cc1ccccc1)[C@@H](O)C[C@H](Cc1ccccc1)NC(=O)[C@H](C(C)C)N1CCCNC1=O [lopinavir]
- Median lopinavir trough (C0) concentrations versus recommended lower limit for ART-naïve patients ([6]; both rifabutin doses): > 1 µg
- AUC(0-t) ([6]; AUC0–12, RBT 150 mg daily plus LPV/r (400/100 mg)): 160000 ng·h/mL
- AUC(0-t) ([6]; AUC0–12, RBT 150 mg tiw plus LPV/r (400/100 mg)): 140000 ng·h/mL
- Differences in AUC0–12 and Cmax between the two doses of rifabutin ([6]; rifabutin 150 mg daily versus 150 mg tiw): not significant
